# How the values were obtained:
# [1] = system: L. acidophilus, C. albicans, C. tropicalis; experiment: Terconazole in Maltose Broth, Group 1 co-culture: turbidity and Gram-stained smear; type: cell-based; design: key to Turbidity, Group 1: ++: The cultural fluid was heavily turbid; +: The cultural fluid was turbid; +/−: The turbidity of the cultural fluid was not affirmative; key to Microbes (Gram-stained smear), Group 1: Lb: Lactobacilli; Candida; conditions: 18 hours, 37° C., candle jar
# Procedure: (§1) • 1. Materials: • Maltose Broth: 10.0% maltose, 2.0% yeast extract, K2HPO4 0.5%, MgSO4 0.05%, MnSO40.1%, pH adjusted to 6.2, sterilized. • Anti-fungi drug: Terconazole • Clinically isolated Lactobacillus strains: Lactobacillus acidophilus, Lactobacillus crispatus, and Lactobacillus jensenii. Three lactobacillus suspensions were prepared separately from each of these three lactobacillus strains.
# (§2) Clinically isolated Candida strains: Candida albicans and Candida tropicalis. Two Candidal suspensions were prepared separately from each of these two candida strains. • 2.
# (§3) • There were six tubes in each group and each tube contained 2 ml Maltose Broth and different concentration of Terconazole, as shown in Table 1. • The turbidity values of three lactobacillus suspensions and two Candidal suspensions were tested by Turbidimeter and adjusted to 0.3. 50 ul of each prepared lactobacillus suspension and Candidal suspension were separately added into tubes according to Table 1. • All of these experimental tubes were put into candle jars as soon as the lactobacillus suspensions and candidal suspensions were added, and then incubated at 37° C. for 18 hours. • After 18 hours' incubation the turbidity of each tube was examined and Gram-stained smear of cultural fluid of corresponding tube was observed under microscopy to check microbes. Results
# [2] = system: L. crispatus, C. albicans, C. tropicalis; experiment: Terconazole in Maltose Broth, Group 2 co-culture: turbidity and Gram-stained smear; type: cell-based; design: key to Turbidity, Group 2: ++: The cultural fluid was heavily turbid; +: The cultural fluid was turbid; +/−: The turbidity of the cultural fluid was not affirmative; key to Microbes (Gram-stained smear), Group 2: Lb: Lactobacilli; Candida; conditions: 18 hours, 37° C., candle jar
# Procedure: as §1, §2, §3
# [3] = system: L. jensenii, C. albicans, C. tropicalis; experiment: Terconazole in Maltose Broth, Group 3 co-culture: turbidity and Gram-stained smear; type: cell-based, Lactobacillus jensenii, Candida albicans, Candida tropicalis; design: key to Turbidity, Group 3: ++: The cultural fluid was heavily turbid; +: The cultural fluid was turbid; +/−: The turbidity of the cultural fluid was not affirmative; key to Microbes (Gram-stained smear), Group 3: Lb: Lactobacilli; Candida; conditions: 18 hours, 37° C., candle jar
# Procedure: as §1, §2, §3
# [4] = system: C. albicans, C. tropicalis; experiment: Terconazole in Maltose Broth, Group 4 (Candidal group): turbidity and Gram-stained smear; type: cell-based, Candida albicans, Candida tropicalis; design: key to Turbidity, Group 4: ++: The cultural fluid was heavily turbid; +: The cultural fluid was turbid; +/−: The turbidity of the cultural fluid was not affirmative; conditions: 18 hours; for Turbidity, Group 4: 37° C., candle jar
# Procedure: as §1, §2, §3
# [5] = system: three Lactobacillus strains; experiment: Terconazole in Maltose Broth: growth of the three Lactobacillus strains (Groups 1-3); type: cell-based; conditions: 400 ug/ml of Terconazole, 18 hours
# Procedure: as §1, §2, §3
compound,measurement,setting,value
CC(C)N1CCN(c2ccc(OCC3COC(Cn4cncn4)(c4ccc(Cl)cc4Cl)O3)cc2)CC1 (stereo not shown) [Terconazole],"Microbes (Gram-stained smear), Group 1",[1]; Terconazole 25 ug/ml,Lb
same,"Turbidity, Group 1",[1]; Terconazole 25 ug/ml,++
same,"Microbes (Gram-stained smear), Group 1",[1]; Terconazole 50 ug/ml,Lb
same,"Turbidity, Group 1",[1]; Terconazole 50 ug/ml,++
same,"Microbes (Gram-stained smear), Group 1",[1]; Terconazole 100 ug/ml,Lb
same,"Turbidity, Group 1",[1]; Terconazole 100 ug/ml,++
same,"Microbes (Gram-stained smear), Group 1",[1]; Terconazole 200 ug/ml,Lb
same,"Turbidity, Group 1",[1]; Terconazole 200 ug/ml,++
same,"Microbes (Gram-stained smear), Group 1",[1]; Terconazole 400 ug/ml,Lb
same,"Turbidity, Group 1",[1]; Terconazole 400 ug/ml,++
same,"Microbes (Gram-stained smear), Group 2",[2]; Terconazole 25 ug/ml,Lb
same,"Turbidity, Group 2",[2]; Terconazole 25 ug/ml,++
same,"Microbes (Gram-stained smear), Group 2",[2]; Terconazole 50 ug/ml,Lb
same,"Turbidity, Group 2",[2]; Terconazole 50 ug/ml,++
same,"Microbes (Gram-stained smear), Group 2",[2]; Terconazole 100 ug/ml,Lb
same,"Turbidity, Group 2",[2]; Terconazole 100 ug/ml,++
same,"Microbes (Gram-stained smear), Group 2",[2]; Terconazole 200 ug/ml,Lb
same,"Turbidity, Group 2",[2]; Terconazole 200 ug/ml,++
same,"Microbes (Gram-stained smear), Group 2",[2]; Terconazole 400 ug/ml,Lb
same,"Turbidity, Group 2",[2]; Terconazole 400 ug/ml,++
same,"Microbes (Gram-stained smear), Group 3",[3]; Terconazole 25 ug/ml,Lb
same,"Turbidity, Group 3",[3]; Terconazole 25 ug/ml,++
same,"Microbes (Gram-stained smear), Group 3",[3]; Terconazole 50 ug/ml,Lb
same,"Turbidity, Group 3",[3]; Terconazole 50 ug/ml,++
same,"Microbes (Gram-stained smear), Group 3",[3]; Terconazole 100 ug/ml,Lb
same,"Turbidity, Group 3",[3]; Terconazole 100 ug/ml,++
same,"Microbes (Gram-stained smear), Group 3",[3]; Terconazole 200 ug/ml,Lb
same,"Turbidity, Group 3",[3]; Terconazole 200 ug/ml,++
same,"Microbes (Gram-stained smear), Group 3",[3]; Terconazole 400 ug/ml,Lb
same,"Turbidity, Group 3",[3]; Terconazole 400 ug/ml,++
same,growth of the two Candidal strains,[4]; 25 ug/ml or greater concentration of Terconazole,inhibited the growth
same,"Turbidity, Group 4",[4]; Terconazole 25 ug/ml,+/−
same,"Turbidity, Group 4",[4]; Terconazole 50 ug/ml,+/−
same,"Turbidity, Group 4",[4]; Terconazole 100 ug/ml,+/−
same,"Turbidity, Group 4",[4]; Terconazole 200 ug/ml,+/−
same,"Turbidity, Group 4",[4]; Terconazole 400 ug/ml,+/−
same,growth of three Lactobacillus strains,[5],didn't inhibit the growth

# — patent publication US6964949B2, “Pharmaceutical compositions for promoting the growth of gram-positive bacilli and increasing the acidity in the vagina and the use thereof” (Shanghai Jiao Da Onlly Co., Ltd., priority 2000, dated 2005)
